Assay results from publication PMC8878317, “Chemogenomics identifies acetyl-coenzyme A synthetase as a target for malaria treatment and prevention” (Cell Chemical Biology, 2022).

Tested on: P. falciparum 3D7 parasites
Assay: Metabolomic profiling of compound-treated parasites (LC/MS);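 on Metabolite data: 3-Phosphoglycerate: Log2 fold change in abundance versus untreated parasite controls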;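 on Metabolite data: Myo-Inositol: Log2 fold change in abundance versus untreated parasite controls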;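 on Metabolite data: N-Carbamoyl-L-Aspartate: Log2 fold change in abundance versus untreated parasite controls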;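 on Metabolite data: Nicotinate: Log2 fold change in abundance versus untreated parasite controls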
Assay type: cell-based
Set-up: Metabolite data: dTMP / Metabolite data: GMP / Metabolite data: S-Adenosyl-L-Homocysteine / Metabolite data: 1_3-Bisphosphoglyceric acid: scale not given here
Method in brief: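 Magnetically purified trophozoites (1×10^8 parasites/mL) recovered 1 h in RPMI 1640, incubated a further 2.5 h, quenched in 90% methanol with labeled aspartate. Extracts analysed by reverse-phase C18 LC with negative-mode Orbitrap MS; peak areas normalized to internal standards, blank-subtracted and averaged by condition.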

SMILES: CCN(CC)S(=O)(=O)c1ccc(Cl)c(C(=O)Nc2ccc3nc(C)sc3c2)c1 [MMV019721-1]
- Metabolite data: 1_3-Bisphosphoglyceric acid: -0.1327
- Metabolite data: 2_3-Diphosphoglyceric acid: -0.1327
- Metabolite data: 3-Phosphoglycerate: 0.1031
- Metabolite data: 4-Aminobutyrate: 0.07842
- Metabolite data: 4-Phosphopantothenate: -0.4201
- Metabolite data: 4-phosphopantetheine: 0.1181
- Metabolite data: 5-aminopentanoic acid: 0.1488
- Metabolite data: 5-phosphoribosyl-1-pyrophosphate: -0.2633
- Metabolite data: 6-Phospho-D-Gluconate: -0.03558
- Metabolite data: ADP-D-Glucose: -0.0516
- Metabolite data: Acetyl-CoA: -1.632
- Metabolite data: Acetyllysine: -1.142
- Metabolite data: Aconitate: 0.3403
- Metabolite data: CDP: 0.8015
- Metabolite data: CDP-Ethanolamine: -0.104
- Metabolite data: CDP-choline: -0.1284
- Metabolite data: CMP: 0.9966
- Metabolite data: CTP: 0.6705
- Metabolite data: Citrate/Isocitrate: 0.04997
- Metabolite data: Cyclic-AMP: 0.2994
- Metabolite data: Dihydroorotate: -0.5549
- Metabolite data: FAD: 0.1056
- Metabolite data: FMN: -0.0123
- Metabolite data: Fructose-1,6-Bisphosphate: -0.009501
- Metabolite data: Fumarate: 0.02182
- Metabolite data: GDP: 0.2889
- Metabolite data: GMP: 0.4991
- Metabolite data: GTP: 0.06975
- Metabolite data: Glucose-1/6-Phosphate: -0.427
- Metabolite data: Glutathione Disulfide: 0.05831
- Metabolite data: Hexose: 0.379
- Metabolite data: Hydroxyisocaproic acid: -0.1664
- Metabolite data: Indole: 0.2013
- Metabolite data: Ketoleucine: -0.05747
- Metabolite data: L-arginino-succinate: 0.0004889
- Metabolite data: Lactate: 0.02998
- Metabolite data: Malate: 0.2897
- Metabolite data: Myo-Inositol: 0.2086
- Metabolite data: N-Acetyl-Glutamate: -0.6054
- Metabolite data: N-Acetyl-L-Alanine: 0.6768
- Metabolite data: N-Acetyl-L-Ornithine: -0.7962
- Metabolite data: N-Carbamoyl-L-Aspartate: -1.055
- Metabolite data: NAD+: 0.01132
- Metabolite data: NADH: 0.3116
- Metabolite data: NADP+: -0.07183
- Metabolite data: NADPH: 0.3145
- Metabolite data: Nicotinate: -0.004899
- Metabolite data: Octulose 8/1-Phosphate: 0.05155
- Metabolite data: Orotate: -0.6691
- Metabolite data: PD: -0.67
- Metabolite data: PE: -0.6545
- Metabolite data: PEEK: -0.6134
- Metabolite data: Phenol Red: 0.04234
- Metabolite data: Pyroglutamic acid: 0.6121
- Metabolite data: S-Adenosyl-L-Homocysteine: -0.2319
- Metabolite data: S-methyl-5'-thioadenosine: -0.02605
- Metabolite data: SD: -0.5163
- Metabolite data: Sedoheptulose Bisphosphate: -0.09842
- Metabolite data: UDP: 0.4977
- Metabolite data: UDP-D-Glucose: 0.03674
- Metabolite data: UDP-D-Glucuronate: 0.09403
- Metabolite data: UDP-N-Acetyl-Glucosamine: -0.09294
- Metabolite data: UMP: 0.6643
- Metabolite data: UTP: 0.267
- Metabolite data: a-ketoglutarate: 0.1182
- Metabolite data: acetyl-aspartate: 0.3762
- Metabolite data: arginine: 0.5929
- Metabolite data: asparagine: -0.2373
- Metabolite data: aspartate: 0.131
- Metabolite data: biotin: -0.04985
- Metabolite data: chlorpropamide: 0.3559
- Metabolite data: coenzyme A: 0.324
- Metabolite data: dAMP: 0.02964
- Metabolite data: dATP: 0.04443
- Metabolite data: dCDP: 0.4313
- Metabolite data: dCMP: 0.6234
- Metabolite data: dCTP: 0.2767
- Metabolite data: dGDP/ADP: 0.453
- Metabolite data: dGMP/AMP: 0.01705
- Metabolite data: dGTP/ATP: -0.2944
- Metabolite data: dTDP: 0.442
- Metabolite data: dTMP: 0.5345
- Metabolite data: dTTP: -0.02333
- Metabolite data: folate: 0.09364
- Metabolite data: glucono-lactone: 0.02131
- Metabolite data: glutamate: 0.09413
- Metabolite data: glutamine: 0.06047
- Metabolite data: glutathione: -0.1419
- Metabolite data: histidine: -0.01478
- Metabolite data: hydroxyproline/Aminolevulinate: 0.7882
- Metabolite data: isoleucine: 0.1307
- Metabolite data: leucine: 0.06401
- Metabolite data: maleic acid: 0.03547
- Metabolite data: methionine: 0.07829
- Metabolite data: nicotinamide mononucleotide: -0.2621
- Metabolite data: orotidine-5'-phosphate: -2.856
